ChEMBL document CHEMBL5532675, “Discovery of 4-Ethoxy-6-chloro-5-azaindazoles as Novel PDE4 Inhibitors for the Treatment of Alcohol Use Disorder and Alcoholic Liver Diseases” (J Med Chem, 2024)
The source made the active and inactive calls. The calls are words filed in the database; no cut-off is given here.

What was measured:
[1] = target: T1, 3',5'-cyclic-AMP phosphodiesterase 4D (Homo sapiens, UniProt Q08499); assay: Inhibition of PDE4D7 (unknown origin) using FAM-cyclic-3',5'-AMP as substrate at 100 nM incubated for 1 hrs by fluorescence polarization based IMAP assay relative to control
[2] = target: T1, 3',5'-cyclic-AMP phosphodiesterase 4D; assay: Inhibition of PDE4D7 (unknown origin) using FAM-cyclic-3',5'-AMP as substrate at 1 microM incubated for 1 hrs by fluorescence polarization based IMAP assay relative to control
[3] = test system: Mus musculus; assay: (§1) Protection against alcohol-induced motor impairment in C57BL/6J mouse model assessed as short recovery time by measuring latency to falling off at 1 mg/kg, po preadministered with compound every 24 hrs for 3 times followed by alcohol administration 30 mins post last dose and further treated with compound for 3 days followed by alcohol administration 30 mins post last dose and measured at 2 to 20 mins by rotarod test; format: functional, organism-based; details: time 8702-8720 min
[4] = test system: Mus musculus; assay: (§2) Protection against alcoholic liver disease in NIAAA C57BL/6J mouse model assessed as improvement of liver injury at 1 mg/kg, po preadministered with 1 to 4 % of alcohol for 10 days with subsequent compound addition from day 6 to 11 and further administered with 31.25 % alcohol on day 11 and measured after 9 hrs by H&E staining based light microscopic analysis; format: functional, organism-based; details: time 5.0 day
[5] = test system: Mus musculus; assay: (§3) Protection against alcohol exposure-induced anxiety like behavior in C57BL/6J mouse model assessed as increase in center time at 1 mg/kg, po pre-trained with alcohol and water for 42 days with subsequent compound addition from day 22 to day 42 followed by 3.5 hrs of darkness and compound administration for 30 mins followed by water replacement with alcohol for 4 hrs and measured 24 hrs after alcohol withdrawal by open field test; format: functional, organism-based
[6] = test system: Mus musculus; assay: Protection against alcohol-induced sedation in C57BL/6J mouse model assessed as reduction in sleep time at 1 mg/kg, po preadministered with compound every 24 hrs for 3 times followed by alcohol administration 30 mins post last dose; format: functional, organism-based; details: time 72.5 hrs
[7] = test system: Mus musculus; assay: as §1, with “increase in distance travelled” for “short recovery time by measuring latency to falling off”, “open field” for “rotarod”; format: functional, organism-based; details: time 8702-8720 min
[8] = test system: Mus musculus; assay: as §2, with “reduction in” for “improvement of”, “TNF-alpha mRNA level” for “injury”, “RT-qPCR” for “H&E staining based light microscopic”; format: functional, organism-based; details: time 5.0 day
[9] = test system: Mus musculus; assay: as §2, with “reduction in serum TNF-alpha level” for “improvement of liver injury”, “ELISA” for “H&E staining based light microscopic analysis”; format: functional, organism-based; details: time 5.0 day
[10] = test system: Mus musculus; assay: as §2, with “reduction in” for “improvement of”, “IL-6 mRNA level” for “injury”, “RT-qPCR” for “H&E staining based light microscopic”; format: functional, organism-based; details: time 5.0 day
[11] = test system: Mus musculus; assay: as §2, with “steatosis” for “liver injury”; format: functional, organism-based; details: time 5.0 day
[12] = test system: Mus musculus; assay: as §2, with “decrease in serum AST level” for “improvement of liver injury”, “absorbance” for “H&E staining”, “plate analyzer” for “light microscopic analysis”; format: functional, organism-based; details: time 5.0 day
[13] = test system: Mus musculus; assay: as §2, with “decrease in serum ALT level” for “improvement of liver injury”, “absorbance” for “H&E staining”, “plate analyzer” for “light microscopic analysis”; format: functional, organism-based; details: time 5.0 day
[14] = test system: Mus musculus; assay: Protection against alcohol use disorder in C57BL/6J mouse model assessed as decrease in alcohol preference at 1 mg/kg, po pre-trained with alcohol and water for 42 days with subsequent compound addition on day 22 and measured after 3 weeks by two-bottle choice test; format: functional, organism-based
[15] = test system: Mus musculus; assay: as §2, with “reduction in serum IL-6 level” for “improvement of liver injury”, “ELISA” for “H&E staining based light microscopic analysis”; format: functional, organism-based; details: time 5.0 day
[16] = test system: Mus musculus; assay: Protection against alcohol use disorder in C57BL/6J mouse model assessed as decrease in alcohol intake at 1 mg/kg, po pre-trained with alcohol and water for 42 days with subsequent compound addition from day 22 to day 42 followed by 3.5 hrs of darkness and compound administration for 30 mins followed by water replacement with alcohol for 4 hrs on day 46 by Drink-in-Dark test; format: functional, organism-based; details: time 23.0 day
[17] = test system: Mus musculus; assay: as §2, with “Oil Red O” for “H&E”; format: functional, organism-based; details: time 5.0 day
[18] = test system: Mus musculus; assay: Protection against alcohol use disorder in C57BL/6J mouse model assessed as decrease in alcohol intake at 1 mg/kg, po pre-trained with alcohol and water for 42 days with subsequent compound addition on day 22 and measured after 3 weeks by two-bottle choice test; format: functional, organism-based
[19] = test system: Mus musculus; assay: as §1, with “as” for “as short”, “of average speed” for “time by measuring latency to falling off”, “open field” for “rotarod”; format: functional, organism-based; details: time 8702-8720 min
[20] = Toxicity in ketamine/xylazine-induced anesthetic C57BL/6J mouse model assessed as emetogenic potential by measuring reduction in anesthesia duration at 0.5 to 1 mg/kg, po preadministered with compound for 15 mins followed by ketamine/xylazine administration; format: organism-based; details: in vivo, 0.25 h, dose 0.5-1 mg/kg
[21] = test system: Mus musculus; assay: as §2, with “steatosis” for “liver injury”, “Oil Red O” for “H&E”; format: functional, organism-based; details: time 5.0 day
[22] = test system: Mus musculus; assay: as §1, with “decrease in resting” for “short recovery”, “time” for “time by measuring latency to falling off”, “open field” for “rotarod”; format: functional, organism-based; details: time 8702-8720 min
[23] = test system: Mus musculus; assay: as §2, with “decrease in” for “improvement of”, “index” for “injury”, “hrs” for “hrs by H&E staining based light microscopic analysis”; format: functional, organism-based; details: time 5.0 day
[24] = test system: Mus musculus; assay: as §3, with “distance travelled” for “increase in center time”; format: functional, organism-based; details: time 24.0 day
[25] = test system: Mus musculus; assay: as §2, with “reduction in” for “improvement of”, “IL-1beta mRNA level” for “injury”, “RT-qPCR” for “H&E staining based light microscopic”; format: functional, organism-based; details: time 5.0 day
[26] = target: T1, 3',5'-cyclic-AMP phosphodiesterase 4D; assay: Inhibition of PDE4D7 (unknown origin) using FAM-cyclic-3',5'-AMP as substrate at 10 nM incubated for 1 hrs by fluorescence polarization based IMAP assay relative to control
[27] = test system: HT-22; assay: Cytotoxicity against mouse HT-22 cells assessed as reduction in cell viability at 30 uM incubated for 48 hrs by MTT assay; format: toxicity, cell-based; details: ht-22, 48 h
[28] = test system: SH-SY5Y; assay: Cytotoxicity against human SH-SY5Y cells assessed as reduction in cell viability at 20 uM incubated for 48 hrs by MTT assay; format: toxicity, cell-based
[29] = target: T1, 3',5'-cyclic-AMP phosphodiesterase 4D; assay: Inhibition of PDE4D7 (unknown origin) using FAM-cyclic-3',5'-AMP as substrate incubated for 1 hrs by fluorescence polarization based IMAP assay
[30] = Chemical stability of compound in aqueous solution at pH >10 measured after 48 hrs; format: physicochemical; details: buffer
[31] = Chemical stability of compound in aqueous solution at pH <6 measured after 48 hrs; format: physicochemical; details: buffer
[32] = Oral bioavailability in Sprague-Dawley rat at 5 mg/kg measured after 24 hrs by LC-MS/MS analysis; format: ADME, organism-based; details: in vivo
[33] = Toxicity in ketamine/xylazine-induced anesthetic C57BL/6J mouse model assessed as emetogenic potential by measuring reduction in anesthesia duration at 0.5 mg/kg, po preadministered with compound for 15 mins followed by ketamine/xylazine administration; format: organism-based; details: in vivo, 0.25 h

T1 sequence (Q08499 whole entry): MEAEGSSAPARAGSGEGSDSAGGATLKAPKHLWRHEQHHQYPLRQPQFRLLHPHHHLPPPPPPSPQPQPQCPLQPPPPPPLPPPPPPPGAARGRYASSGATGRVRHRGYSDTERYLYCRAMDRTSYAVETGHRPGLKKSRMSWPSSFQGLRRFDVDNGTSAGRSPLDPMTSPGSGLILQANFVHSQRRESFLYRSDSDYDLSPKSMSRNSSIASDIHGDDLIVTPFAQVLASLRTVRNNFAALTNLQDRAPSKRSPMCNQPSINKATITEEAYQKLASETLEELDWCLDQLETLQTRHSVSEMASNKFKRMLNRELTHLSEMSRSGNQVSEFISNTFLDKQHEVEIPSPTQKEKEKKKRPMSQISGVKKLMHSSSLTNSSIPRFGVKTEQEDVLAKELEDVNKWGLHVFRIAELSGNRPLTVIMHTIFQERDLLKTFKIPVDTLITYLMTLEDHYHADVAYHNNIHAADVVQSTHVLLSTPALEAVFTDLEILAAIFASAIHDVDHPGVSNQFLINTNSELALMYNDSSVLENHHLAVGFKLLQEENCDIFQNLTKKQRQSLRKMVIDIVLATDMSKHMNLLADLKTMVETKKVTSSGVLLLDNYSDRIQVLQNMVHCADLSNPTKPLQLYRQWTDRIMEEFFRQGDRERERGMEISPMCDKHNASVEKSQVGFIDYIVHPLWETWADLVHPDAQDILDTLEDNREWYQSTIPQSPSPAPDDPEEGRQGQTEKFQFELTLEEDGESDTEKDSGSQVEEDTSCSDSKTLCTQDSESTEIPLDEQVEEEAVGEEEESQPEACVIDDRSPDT

## CNc1nc(Cl)cc2c1cnn2C1CCOCC1
[1]
  inhibition: 0%
[2]
  inhibition: 0%

## FC(F)(F)COc1nc(Cl)cc2c1cnn2C1CCOCC1
[1]
  inhibition: 16%
[2]
  inhibition: 35%

## CC(C)Oc1nc(Cl)cc2c1cnn2C1CCOCC1
[1]
  inhibition: 12%
[2]
  inhibition: 30%

## COc1ccc(C2CNC(=O)C2)cc1OC1CCCC1 (configuration not stated) [ROLIPRAM]
[1]
  inhibition: 34%
[3]
  Activity: inactive
[4]
  Activity: Active
[5]
  Activity: Active
[6]
  Activity: inactive
[7]
  Activity: Active
[8]
  Activity: Active
[9]
  Activity: Active
[2]
  inhibition: 72%
[10]
  Activity: Active
[11]
  Activity: Active
[12]
  Activity: Active
[13]
  Activity: Active
[14]
  Activity: Active
[15]
  Activity: Active
[16]
  Activity: Active
[17]
  Activity: Active
[18]
  Activity: Active
[19]
  Activity: Active
[20]
  Activity: Toxic
[21]
  Activity: Active
[22]
  Activity: Active
[23]
  Activity: Active
[24]
  Activity: Active
[25]
  Activity: Active

## CCOc1nc(Cl)cc2c1cnn2CC(=O)NO
[1]
  inhibition: 68%
[26]
  inhibition: 41%
[27]
  Activity: Non-Toxic
[28]
  Activity: Non-Toxic
[29]
  IC50: 16.6 nM

## CCOc1nc(Cl)cc2nn(CC(=O)NO)cc12
[1]
  inhibition: 69%
[26]
  inhibition: 36%
[27]
  Activity: Non-Toxic
[28]
  Activity: Non-Toxic
[29]
  IC50: 20.2 nM

## CCOc1nc(C(C)=O)cc2c1cnn2C1CCOCC1
[1]
  inhibition: 6%
[2]
  inhibition: 9%

## CCOc1nc(Cl)nc2c1cnn2C1CCOCC1
[30]
  Stability: Unstable
[31]
  Stability: Unstable

## CCOc1nc(C#N)cc2c1cnn2C1CCOCC1
[1]
  inhibition: 32%
[2]
  inhibition: 82%
[29]
  IC50: 230 nM

## CCOc1nc(Cl)cc2c1cnn2C1CCOCC1
[1]
  inhibition: 64%
[2]
  inhibition: 95%
[30]
  Stability: Stable
[29]
  IC50: 92.7 nM
[31]
  Stability: Stable

## CCNc1nc(Cl)cc2c1cnn2C1CCCC1
[1]
  inhibition: 5%
[2]
  inhibition: 28%

## Clc1cc2c(cnn2C2CCOCC2)c(OC2CCCC2)n1
[1]
  inhibition: 5%
[2]
  inhibition: 10%

## CCOc1nc(-c2cccs2)cc2c1cnn2C1CCOCC1
[1]
  inhibition: 4%
[2]
  inhibition: 23%

## CCOc1nc(-c2ccccc2)cc2c1cnn2C1CCOCC1
[1]
  inhibition: 14%
[2]
  inhibition: 32%

## CC(C)NC(=O)c1ccc(OC(F)F)c(OCC2CC2)c1
[32]
  bioavailability: 1.2%

## Clc1cc2c(cnn2C2CCOCC2)c(OC2CC2)n1
[1]
  inhibition: 4%
[2]
  inhibition: 8%

## O=C(Nc1c(Cl)cncc1Cl)c1ccc(OC(F)F)c(OCC2CC2)c1 [ROFLUMILAST]
[33]
  Activity: Toxic

## COc1nc(Cl)cc2c1cnn2C1CCOCC1
[1]
  inhibition: 35%
[2]
  inhibition: 75%

## CCOc1nc(C(N)=O)cc2c1cnn2C1CCOCC1
[1]
  inhibition: 6%
[2]
  inhibition: 12%

## CNc1nc(Cl)cc2c1cnn2C1CCCC1
[1]
  inhibition: 15%
[2]
  inhibition: 59%

## CCOc1nc(Cl)cc2nn(CCCO)cc12
[1]
  inhibition: 53%
[26]
  inhibition: 21%
[27]
  Activity: Non-Toxic
[28]
  Activity: Non-Toxic
[29]
  IC50: 71.3 nM

## CCCOc1nc(Cl)cc2c1cnn2C1CCOCC1
[1]
  inhibition: 2%
[2]
  inhibition: 5%

## CCOc1nc(-c2ccsc2)cc2c1cnn2C1CCOCC1
[1]
  inhibition: 3%
[2]
  inhibition: 4%

## CCOc1nc(Cl)cc2nn(CCCC(=O)NO)cc12
[1]
  inhibition: 63%
[26]
  inhibition: 18%
[29]
  IC50: 51.7 nM

## CCOc1cc([C@@H](CS(C)(=O)=O)N2C(=O)c3cccc(NC(C)=O)c3C2=O)ccc1OC [APREMILAST]
[33]
  Activity: Toxic

## CCOc1nc(Cl)cc2nn(CCC(=O)NO)cc12
[1]
  inhibition: 66%
[26]
  inhibition: 25%
[29]
  IC50: 38.7 nM
